According to patent publication US10851067B2, “Kv7 channel activators compositions and methods of use” (Knopp Biosciences LLC, priority 2018, dated 2020):

Target: Kv7.2/7.3 (Homo sapiens, UniProt O43525+O43526)
Assay: Kv7.2/7.3 Activation Assay, QPatch single concentration screen
Type: cell-based
Set-up: host or cells: HEK cells, tetracycline-inducible expression; key: 1.2-2.9 (+); 3-3.9 (++); >4 (+++) fold increase over baseline; O represents open channel at holding potential
Settings: Kv7.2/Kv7.3 co-expressing HEK cells, compound concentration 3 μM, steady-state current at end of 2 s pulse to −30 mV
Protocol: Kv7.2/7.3 Activation Assay
The ability of compounds to potentiate K-currents in Kv7.2/7.3 containing HEK cells was assessed using planar patch-clamp on the QPatch automated screening platform.
The hKv7.2/7.3 cell line was obtained from Chantest (Cleveland, Ohio 44128) cat. #CT6147. These HEK cells will express the Kv7.2/7.3 ion channels when induced.
Cells were maintained in a media containing DMEM/F12; 50/50 (GIBCO cat. #11330), 10% Fetal Bovine Serum (FBS) (GIBCO cat. #26140), 100 units/mL Penicillin-Streptomycin (GIBCO cat. #15140), 0.005 mg/mL Blasticidin (INVIVOGEN cat. #ant-b1-1), 0.5 mg/mL Geneticin (GIBCO cat. #10131), 0.1 mg/mL Zeocin (GIBCO cat. #R25001). Cells used in the electrophysiology assay were maintained in a media without Blasticidin, Geneticin and Zeocin for 2 days and channel expression was induced by adding tetracycline (BIOLINE cat. #BIO-87030) at a final concentration of 1 mg/mL. Cells were grown in T-175 flask to ˜75% confluency. Currents were recorded 24 hours after channel induction.
Test compounds were prepared by performing serial dilutions on a Biomek NX^P (BECKMAN COULTER). Final dilutions were made in external recording solution with a final DMSO concentration of 0.1% DMSO. For single concentration screens each plate had 10 μM retigabine as a positive control and 0.1% DMSO as a negative control.
On the day of the experiment cells were washed with Hank's Balanced Salt Solution (HBBS) (GIBCO cat. #14175) and harvested with Tryple (GIBCO cat. #12604). Cells were then centrifuged at 2000 rpm for 5 minutes and resuspended in CHO-S-SFM (GIBCO cat. #12052) at ˜3×10^6 cells/mL. Cells were stirred for 30 minutes before experiments were started. External recording solution contained (in mM): NaCl (145), KCl (4), CaCl2 (2), MgCl2 (1), HEPES (10) and Glucose (10); pH was adjusted to 7.4 with NaOH and the osmolarity was adjusted to 300-305 mOsM with sucrose if necessary. Internal solution contained (in mM): KCl (125), KF (10), EGTA (5), Na2ATP (5), MgCl2 (3.2), HEPES (5); pH was adjusted to 7.2 with KOH and the osmolarity was adjusted to 298-302 mOsM with sucrose.
Potassium channel activity was measured on the QPatch HTX (Sophion Bioscience) using QPlates with 48-wells/plate. Each cell was taken as an independent experiment and only one compound was tested per well. Potassium channel activity was elicited by holding at −80 mV and stepping to −30 mV for 2 s followed by a 100 ms pulse to −120 mV.
Single Concentration Screen:
Baseline conditions were obtained by recording 5 sweeps in the external solution only, this was repeated for three applications of the external solution. The effect of test compounds on elicited current was then assessed by recording 5 sweeps in the presence of a 3 μM compound solution. The steady-state current at the end of the 2 s pulse to −30 mV was measured to determine the fold increase from baseline.

SMILES | Kv7.2/7.3 Activity: increase over baseline in current
[2H]C([2H])([2H])C(CC(=O)Nc1nc2c(F)cc(C(C)(C)O)cc2n1C1CCC1)(C([2H])([2H])[2H])C([2H])([2H])[2H] [Example 342, N-(1-cyclobutyl-4-fluoro-6-(2-hydroxypropan-2-yl)-1H-benzo[d]imidazol-2-yl)-3,3-bis(methyl-d3)butanamide] | +++ (>4 (+++) fold increase over baseline)
CC(C)(C)CC(=O)Nc1nc2c(F)cc(Br)cc2n1C1CCC1 [Example 343, N-(6-bromo-1-cyclobutyl-4-fluoro-1H-benzo[d]imidazol-2-yl)-3,3-dimethylbutanamide] | +++ (>4 (+++) fold increase over baseline)
CC(C)(CC(=O)Nc1nc2ccc(C#N)c(F)c2n1C1CCC1)CC(F)(F)F [Example 345, N-(6-cyano-1-cyclobutyl-7-fluoro-1H-benzo[d]imidazol-2-yl)-5,5,5-trifluoro-3,3-dimethylpentanamide] | + (1.2-2.9 (+))
CC(C)(C)CC(=O)Nc1nc2ccc(OC(F)F)cc2n1C1(C)CCC1 [Example 346, N-(6-(difluoromethoxy)-1-(1-methylcyclobutyl)-1H-benzo[d]imidazol-2-yl)-3,3-dimethylbutanamide] | ++ (3-3.9 (++))
CC(C)(C)n1c(NC(=O)CC(C)(C)C(F)(F)F)nc2c(F)cc(C#N)c(F)c21 [Example 349, N-(1-(tert-butyl)-6-cyano-4,7-difluoro-1H-benzo[d]imidazol-2-yl)-4,4,4-trifluoro-3,3-dimethylbutanamide] | ++ (3-3.9 (++))
CC(C)(O)c1ccc2nc(NC(=O)CC3CC(F)(F)C3(F)F)n(C3CCC3)c2c1 (centres unmarked) [Example 353, N-(1-cyclobutyl-6-(2-hydroxypropan-2-yl)-1H-benzo[d]imidazol-2-yl)-2-(2,2,3,3-tetrafluorocyclobutyl)acetamide] | + (1.2-2.9 (+))
CC(C)(CC(=O)Nc1nc2ccc(C#N)cc2n1C(C)(C)C)C1CC1 [Example 354, N-(1-(tert-butyl)-6-cyano-1H-benzo[d]imidazol-2-yl)-3-cyclopropyl-3-methylbutanamide] | ++ (3-3.9 (++))
COc1cc(F)c2nc(NC(=O)CC(C)(C)C)n(C3(C)CCC3)c2c1 [Example 355, N-(4-fluoro-6-methoxy-1-(1-methylcyclobutyl)-1H-benzo[d]imidazol-2-yl)-3,3-dimethylbutanamide] | +++ (>4 (+++) fold increase over baseline)
CC(C)(C)CC(=O)Nc1nc2cc(F)cc(F)c2n1C1CCC1 [Example 357, N-(1-cyclobutyl-5,7-difluoro-1H-benzo[d]imidazol-2-yl)-3,3-dimethylbutanamide] | +++ (>4 (+++) fold increase over baseline)
CC(C)(CC(=O)Nc1nc2c(F)cc(O)cc2n1C1CCC1)C(F)(F)F [Example 359, N-(1-cyclobutyl-4-fluoro-6-hydroxy-1H-benzo[d]imidazol-2-yl)-4,4,4-trifluoro-3,3-dimethylbutanamide] | ++ (3-3.9 (++))
CC1(n2c(NC(=O)CC(C)(C)C(F)(F)F)nc3ccc(C#N)cc32)CCC1 [Example 361, N-(6-cyano-1-(1-methylcyclobutyl)-1H-benzo[d]imidazol-2-yl)-4,4,4-trifluoro-3,3-dimethylbutanamide] | ++ (3-3.9 (++))
CC(C)(C)CC(=O)Nc1nc2cc(F)c(C(C)(C)O)c(F)c2n1C1CCC1 [Example 362, N-(1-cyclobutyl-5,7-difluoro-6-(2-hydroxypropan-2-yl)-1H-benzo[d]imidazol-2-yl)-3,3-dimethylbutanamide] | ++ (3-3.9 (++))
CC(C)(CC(=O)Nc1nc2cc(F)c(OC(F)F)cc2n1C1CCC1)C1CC1 [Example 363, N-(1-cyclobutyl-6-(difluoromethoxy)-5-fluoro-1H-benzo[d]imidazol-2-yl)-3-cyclopropyl-3-methylbutanamide] | + (1.2-2.9 (+))
CC1(n2c(NC(=O)CC(C)(C)C(F)(F)F)nc3ccc(OC(F)F)cc32)CCC1 [Example 366, N-(6-(difluoromethoxy)-1-(1-methylcyclobutyl)-1H-benzo[d]imidazol-2-yl)-4,4,4-trifluoro-3,3-dimethylbutanamide] | + (1.2-2.9 (+))
CC(C)(CC(=O)Nc1nc2cc(F)c(OC(F)F)cc2n1C(C)(C)C)C1CC1 [Example 368, N-(1-(tert-butyl)-6-(difluoromethoxy)-5-fluoro-1H-benzo[d]imidazol-2-yl)-3-cyclopropyl-3-methylbutanamide] | + (1.2-2.9 (+))
C[C@@H](CC(=O)Nc1nc2ccc(C(C)(C)O)cc2n1C1CCC1)c1ccccc1 [Example 369, (S)-N-(1-cyclobutyl-6-(2-hydroxypropan-2-yl)-1H-benzo[d]imidazol-2-yl)-3-phenylbutanamide] | O

Further lines, results first:

Kv7.2/7.3 Activity: increase over baseline in current | SMILES
+ (1.2-2.9 (+)) | CC1(n2c(NC(=O)CC(C)(C)C(F)(F)F)nc3cc(F)cc(C#N)c32)CCC1 [Example 340, N-(7-cyano-5-fluoro-1-(1-methylcyclobutyl)-1H-benzo[d]imidazol-2-yl)-4,4,4-trifluoro-3,3-dimethylbutanamide]
+ (1.2-2.9 (+)) | CC(C)(O)CC(=O)Nc1nc2ccc(OC(F)F)c(F)c2n1C1(C)CCC1 [Example 351, N-(6-(difluoromethoxy)-7-fluoro-1-(1-methylcyclobutyl)-1H-benzo[d]imidazol-2-yl)-3-hydroxy-3-methylbutanamide]
++ (3-3.9 (++)) | CC(C)(CC(=O)Nc1nc2c(F)cc(C3(O)CCC3)cc2n1C1CCC1)C(F)(F)F [Example 352, N-(1-cyclobutyl-4-fluoro-6-(1-hydroxycyclobutyl)-1H-benzo[d]imidazol-2-yl)-4,4,4-trifluoro-3,3-dimethylbutanamide]
+ (1.2-2.9 (+)) | CC(C)(C)CC(=O)Nc1nc2cc(F)c(C#N)c(F)c2n1C1CCC1 [Example 356, N-(6-cyano-1-cyclobutyl-5,7-difluoro-1H-benzo[d]imidazol-2-yl)-3,3-dimethylbutanamide]
++ (3-3.9 (++)) | CC(C)(CC(=O)Nc1nc2c(F)cc(C#N)cc2n1C(C)(C)C)C(F)F [Example 364, N-(1-(tert-butyl)-6-cyano-4-fluoro-1H-benzo[d]imidazol-2-yl)-4,4-difluoro-3,3-dimethylbutanamide]
+ (1.2-2.9 (+)) | C[C@H](C(=O)Nc1nc2ccc(C(C)(C)O)cc2n1C1CC(F)(F)C1)C(C)(C)C [Example 365, (S)-N-(1-(3,3-difluorocyclobutyl)-6-(2-hydroxypropan-2-yl)-1H-benzo[d]imidazol-2-yl)-2,3,3-trimethylbutanamide]
++ (3-3.9 (++)) | CC(C)(CC(=O)Nc1nc2cc(F)c(OC(F)F)cc2n1C1(C)CCC1)C1CC1 [Example 367, 3-cyclopropyl-N-(6-(difluoromethoxy)-5-fluoro-1-(1-methylcyclobutyl)-1H-benzo[d]imidazol-2-yl)-3-methylbutanamide]
